Results on three molecules are retold here after patent US20250032383A1, “PERSONAL CARE COMPOSITION” (Conopco, Inc., d/b/a UNILEVER, priority 2021, published 2025).

This experiment concerns MelaKuits® living skin equivalent models. Kind of experiment: skin brightening efficacy in UVB-irradiated living skin equivalent models, lightness (L*) by DSM II Color Meter. Format: cell-based. How it is done:
The skin brightening efficacy were evaluated by using MelaKuits® living skin equivalent models (Biocell, Xi'an, China). A series of identical living skin equivalent models were constructed by following manufacturer's instruction. After the models were constructed, the models were irradiated by UVB with an energy density of 50 mJ/cm^2, followed by culturing in fresh medium with or without actives for one day. Such irradiating and culturing process were repeated by using refreshed same medium for seven times. The lightness (L*) of each model were measured by using a DSM II Color Meter. The measurements of lightness were repeated at least three times. Similar experiments were conducted as that in Example 1 except that niacinamide was used and different batch of live equivalent models were used. The original lightness of the live equivalent models was different from that in Example 1.

For the molecule `NC(=O)c1cccnc1` [niacinamide, reference compound], the “Average lightness (L*)” value (Example 2, different batch of models, UVB, 3 wt % of niacinamide in medium (UVB + medium only 66.86; blank control 71.43)) is given as 71.15.

`CCCCCCC(O)CCCCCCCCCCC(=O)O` (stereo not drawn) [12-HSA, 12-hydroxystearic acid]: the “Average lightness (L*)” value (Example 1 batch, UVB 50 mJ/cm^2, irradiating and culturing repeated seven times, 10 μM of 12-HSA in medium (UVB + medium only 32.4; blank control 43.4)) was determined as 35.2.

In the case of Lysine carboxymethyl cysteinate [LCC], the “improvement of the skin brightening efficacy of niacinamide (in words)” value (LCC 0.27 wt % added to 3 wt % niacinamide, Table 2) is reported as “not capable of improving the skin brightening efficacy of niacinamide”.
